Data: patent publication US20230302036A1, “COMPOSITIONS FOR TREATMENT OF SPINAL MUSCULAR ATROPHY” (priority 2020, published 2023)
Oligonucleotides are written 5' to 3', each unit as a sugar letter and its base; * is a phosphorothioate linkage, no mark a phosphodiester; rarer units and linkages stand in square brackets, end groups in braces. Plain capitals give the bases only. e = 2'-O-(2-methoxyethyl) (MOE); [5mC] = 5-methylcytosine

How the values were obtained:
SMA mice [1] = experiment: Righting reflex test of P7 SMA mice; type: in vivo, mouse; conditions: for righting reflex delay (in words): untreated mutant ~45 seconds
Procedure: Scramble (Ctrl) (n=12, 40 trials), VPA (n=13, 50 trials), ASO1 (n=11, 50 trials), ASO1 + VPA (n=17, 68 trials), and untreated heterozygotes (n=12, 36 trials). […] In the righting-reflex test, the time it took a mouse to right itself on its back on a flat surface was measured.
To complement the survival and weight-gain data, two noninvasive neuromuscular function tests, appropriate for mouse pups, were performed. In the righting reflex test, the time it takes a mouse to right itself when placed on its back on a flat surface was measured (Feather-Schussler et al., 2016).

[2] = test system: endogenous SMN2 E7 alternative splicing; experiment: SMN2 E7 alternative splicing by radioactive RT-PCR in HEK293T cells; type: cell-based, human; conditions: HEK293T
Procedure: Alternative splicing was analyzed by radioactive RT-PCR followed by native polyacrylamide gel electrophoresis and autoradiography. Bars display means ± SD of percentage of the radioactivity in the FL band over the sum of radioactivity measurements in the FL and ΔE7 bands of at least three independent transfection experiments. A two-tailed Student’s t test was used to determine the significance between events. (FIG. 1A) HEK293T cells were co-transfected with the SMN2 minigene and expression vectors for WT^res and hC4 Pol II, followed by addition of α-amanitin. (FIG. 1B) Effect of camptothecin (CPT) on SMN2 E7 alternative splicing. HEK293T cells were incubated for at least 6 hours with 3 µM CPT. Combined effects on endogenous SMN2 E7 alternative splicing of transfection with 25 nM ASO1 and treatment with 3 µM TSA for 24 hr (FIG. 1C), 10 mM VPA for 24 hr (FIG. 1D), or 25 µM 5-AZA for 48 hr (FIG. 1E). Combined effects on HEK293T endogenous SMN2 E7 alternative splicing of transfection with 25 nM each of si-hnRNPA1 and si-hnRNPA2, and treatment with 3 µM TSA for 24 hr (FIG. 1F) or 10 mM VPA for 24 hr (FIG. 1G). […]
HEK293T, HeLa, and SMA type I homozygous and carrier fibroblasts 3813 and 3814 (Coriell Cell Repositories, Camden, New Jersey, United States) were grown in Dulbecco’s modified Eagle’s medium (DMEM) containing 4.5 g of glucose and 10% fetal bovine serum (Gibco) at 37° C. Cells were plated at a density of 2×10^5 cells per well in 12-well plates 24 hr before transfection. siRNA (25 nM), plasmid (500 ng), or ASO (25 nM) transfections were performed 24 hr after cells were plated, using 3 µl of Lipofectamine 2000 (Thermo Fisher Scientific) per well in 12-well plates. 24-48 h later, cells were treated with Trichostatin A (Sigma, T8552), Valproic Acid (Sigma, P4543), 5-Azacytidine (Sigma, A2385) or vehicle for the indicated time, and harvested for downstream procedures. […]

[3] = test system: H3K9Ac along the SMN2 gene; experiment: ChIP-qPCR of H3K9Ac distribution along the SMN2 gene in HEK293T cells; type: cell-based, human; conditions: 10 mM VPA 12 hr or ASO1 transfection
Procedure: Four independent immunoprecipitation replicates were conducted per experiment. Data are represented as mean ± S.D. (n = 4, *p < 0.05, two-tailed Student's t test). […] Top: control Western blot for efficient expression of the c-Myc-SMN fusion protein encoded by plasmid […], cat.# 71687) using anti-tubulin (tub.) as loading control. Bottom: […] Distribution of these histone marks was assessed by ChIP-qPCR, with amplicons mapping near the numbered exons (E) and introns (i). Three independent immunoprecipitation replicates were conducted per experiment. Data are represented as mean ± S.D. (n = 5; in all cases p was much higher than 0.05, two-tailed Student's t test). […] Top: control Western blot for efficient expression of the […] fusion protein encoded by plasmid pEGFP-RNASEH1 (Addgene, cat.# 108699), using anti-actin (act.) as loading control. Bottom: […] Top: control Western blot for efficient AGO1 knockdown using anti-tubulin (tub.) as loading control. Bottom: […] RT-PCR conditions for FIGS. 10A, 10C and 10D were as in FIGS. 1A-1G . Approximately 2×10^6 HEK293T cells per sample were treated for 10 min in 1% (v/v) formaldehyde at room temperature to crosslink protein-DNA complexes. Crosslinking was stopped with glycine at a final concentration of 125 mM. […]

[4] = test system: H3K9me2 along the SMN2 gene; experiment: ChIP-qPCR of H3K9me2 distribution along the SMN2 gene in HEK293T cells; type: cell-based, human
Procedure: H3K9me2 (FIG. 2B), total RNAPII (FIG. 2C), P-Ser5 RNAPII (FIG. 2D), and P-Ser2 RNAPII (FIG. 2E) distribution along the SMN2 gene, assessed by ChIP-qPCR in HEK293T cells transfected with the scramble oligo (CTRL) or ASO1 and treated with 10 mM VPA. Four independent immunoprecipitation replicates were conducted per experiment. Data are represented as mean ± S.D. (n = 4, *p < 0.05, two-tailed Student’s t test).
Total distribution of H3K9me2 (FIG. 3C), total RNAPII (FIG. 3D), P-Ser5 RNAPII (FIG. 3E), and P-Ser2 RNAPII (FIG. 3F) along the SMN2 gene is shown. This distribution was assessed by ChIP-qPCR in HEK293T cells transfected with the scramble oligo (CTRL) or ASO2 and treated with 10 mM VPA. Four independent immunoprecipitation replicates were conducted per experiment. Data are represented as mean ± S.D. (n = 4, *p < 0.05, two-tailed Student’s t test).
Approximately 2×10^6 HEK293T cells per sample were treated for 10 min in 1% (v/v) formaldehyde at room temperature to crosslink protein-DNA complexes. Crosslinking was stopped with glycine at a final concentration of 125 mM. Cells were washed twice with cold PBS and swelled on ice for 10 min in 25 mM HEPES pH 8, 1.5 mM MgCl2, 10 mM KCl, 0.1% NP-40, 1 mM DTT and 1× protease inhibitor cocktail set III (Calbiochem). Following Dounce homogenization, the nuclei were collected and resuspended in 1 ml sonication buffer (50 mM HEPES pH 8, 140 mM NaCl, 1 mM EDTA, 0.1% sodium deoxycholate, 0.1% SDS and 1× protease inhibitor cocktail). DNA was sonicated in an ultrasonic bath (Bioruptor Diagenode) to an average length of 200-500 bp. After addition of 1% (v/v) Triton X-100, samples were centrifuged at 15,000 ×g. Supernatants were immunoprecipitated O/N with 40 µl of pre-coated anti-IgG magnetic beads (Dynabeads M-280, Invitrogen) previously incubated with the antibody of interest for 6 hr at 4° C. The antibodies used were: rabbit anti-H3 (2 µg, Abcam ab1791), mouse anti-H3K9me2 (4 µg, Abcam ab1220), rabbit anti H3K9me3 (4 µg, Abcam ab8898), rabbit anti H3K9Ac (2 µg, Abcam ab4441), rabbit anti Rpb1 NTD (2 µg, Cell Signaling, D8L4Y), rabbit Phospho-Rpb1 CTD Ser2 (2 µg, Cell Signaling, E1Z3G), rabbit Phospho-Rpb1 CTD Ser5 (2 µg, Cell Signaling, D9N5I). Control immunoprecipitations were performed with rabbit IgG (1 µg, Abcam ab171870). […] Immunoprecipitated DNA (1.5 µl) and serial dilutions of the 10% input DNA (1:4, 1:20, 1: 100, and 1:500) were analyzed by SYBR-Green real-time qPCR.

SMA mice [5] = experiment: Grip-strength test of P7 SMA mice; type: in vivo, mouse; conditions: untreated mutants ~35°
Procedure: ASO1-treated Smn^+/- heterozygote littermates (n=15) served as controls. Scramble (Ctrl) (n=12, 40 trials), VPA (n=13, 50 trials), ASO1 (n=11, 50 trials), ASO1 + VPA (n=17, 68 trials), and untreated heterozygotes (n=12, 36 trials). Statistical significance was analyzed by two-way repeated measures ANOVA. P < 0.05 was considered statistically significant; data are represented as mean + SD. […] In the grip-strength test, the angle at which the pups fell from a tablet with a rough to which they held on by their forelimbs was measured.
In the grip-strength test, the angle at which the pups fall from a tablet with a rough surface to which they hold on by their forelimbs was measured.

Row | Molecule | righting reflex delay (in words) (SMA mice [1]) | effect of hnRNPA1/A2 depletion in promoting E7 inclusion upon HDAC inhibitor treatment ([2]; 25 nM each si-hnRNPA1 and si-hnRNPA2, no ASO1, 3 µM TSA or 10 mM VPA 24 hr) | H3K9 acetylation along the SMN2 gene [3] | effect of VPA on ASO1-promoted H3K9me2 ([4]; HEK293T transfected with ASO1 and treated with 10 mM VPA) | H3K9me2 marks along the SMN2 gene ([4]; HEK293T, ASO transfection or 10 mM VPA) | grip strength, inclination angle at which pups fall (SMA mice [5]) | righting reflex, time to right (SMA mice [1]) | effect on SMN2 E7 inclusion, agent alone ([2]; 25 nM ASO, 3 µM TSA 24 hr, 25 µM 5-AZA 48 hr, 3 µM CPT) | H3K9 dimethylation, peak increase at the promoter and the alternative E7 areas ([4]; HEK293T transfected with ASO1 vs scramble oligo)
1 | CCCC(CCC)C(=O)O [VPA, valproic acid] | not significantly changed | stronger | promoted intragenic H3K9 acetylation | completely abolished the ASO1 effect | reduced the H3K9me2 marks relative to the control | ~ 30 ° |  |  | 
2 | ASO1: 5′-ATTCACTTTCATAATGCTGG-3′ 2′-O-methoxyethyl-modified oligonucleotide with phosphorothioate backbone and all 5-methyl cytosines; nusinersen variant with 2-nucleotide extension (antisense eA*eT*eT*e[5mC]*eA*e[5mC]*eT*eT*eT*e[5mC]*eA*eT*eA*eA*eT*eG*e[5mC]*eT*eG*eG) | greatly reduced |  | not affected |  |  | ~ 45 ° | ~ 10 seconds | promoted inclusion | 8 fold
